Laboratory results published in publication PMC9962794, “A Novel and Functionally Diverse Class of Acetylcholine-Gated Ion Channels” (The Journal of Neuroscience, 2023).
Like-named read-outs stand apart in the source and are kept apart here. Blank lines part the entries; values can stand above or below the compound they belong to.

Assays:
Test in all cases: two-electrode voltage clamp, oocytes
Assay type in all cases: cell-based
[1] = biological target: T1, LGC-39 (Caenorhabditis elegans, UniProt O17402)
T1 construct: full-length cDNA by gene synthesis, KSM vector, cRNA in Xenopus laevis oocytes; homomeric pentameric channel
T1 sequence (O17402 22-563): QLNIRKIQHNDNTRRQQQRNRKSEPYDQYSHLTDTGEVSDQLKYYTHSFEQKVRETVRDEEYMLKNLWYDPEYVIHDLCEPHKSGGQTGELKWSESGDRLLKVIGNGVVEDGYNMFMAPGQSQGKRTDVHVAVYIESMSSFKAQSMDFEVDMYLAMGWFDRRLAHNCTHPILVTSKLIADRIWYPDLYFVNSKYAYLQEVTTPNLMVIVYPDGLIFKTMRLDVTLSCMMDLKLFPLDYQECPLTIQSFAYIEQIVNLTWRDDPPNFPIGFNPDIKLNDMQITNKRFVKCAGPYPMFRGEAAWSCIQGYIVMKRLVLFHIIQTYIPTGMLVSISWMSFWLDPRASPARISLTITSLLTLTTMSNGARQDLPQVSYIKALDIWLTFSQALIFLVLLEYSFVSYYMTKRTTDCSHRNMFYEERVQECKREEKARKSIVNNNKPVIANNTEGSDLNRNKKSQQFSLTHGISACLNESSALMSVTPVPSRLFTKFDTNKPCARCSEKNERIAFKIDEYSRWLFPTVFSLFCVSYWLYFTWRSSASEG

[2] = biological target: T2, LGC-49 (Caenorhabditis elegans, UniProt Q21420)
T2 construct: full-length cDNA in KSM vector, cRNA in Xenopus laevis oocytes; homomeric pentameric channel
T2 sequence (Q21420 26-457): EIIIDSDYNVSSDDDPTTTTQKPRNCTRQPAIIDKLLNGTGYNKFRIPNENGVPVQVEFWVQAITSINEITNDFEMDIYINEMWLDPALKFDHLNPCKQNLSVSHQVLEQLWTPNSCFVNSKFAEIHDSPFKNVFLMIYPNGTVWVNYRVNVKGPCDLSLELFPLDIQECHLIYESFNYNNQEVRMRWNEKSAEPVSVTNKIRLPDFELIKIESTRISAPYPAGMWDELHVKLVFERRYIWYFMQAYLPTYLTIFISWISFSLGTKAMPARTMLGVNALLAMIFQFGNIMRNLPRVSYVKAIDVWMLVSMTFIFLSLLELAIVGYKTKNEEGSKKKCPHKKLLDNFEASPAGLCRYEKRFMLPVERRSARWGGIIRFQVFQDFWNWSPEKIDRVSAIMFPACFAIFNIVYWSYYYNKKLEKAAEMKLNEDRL

[3] = biological target: T3, LGC-46 (Caenorhabditis elegans, UniProt Q95Y52); settings: agonist; ND96, clamped at -60 mV
T3 construct: full-length cDNA in KSM vector, cRNA in Xenopus laevis oocytes; pentameric, expressed alone
T3 sequence (Q95Y52 19-508): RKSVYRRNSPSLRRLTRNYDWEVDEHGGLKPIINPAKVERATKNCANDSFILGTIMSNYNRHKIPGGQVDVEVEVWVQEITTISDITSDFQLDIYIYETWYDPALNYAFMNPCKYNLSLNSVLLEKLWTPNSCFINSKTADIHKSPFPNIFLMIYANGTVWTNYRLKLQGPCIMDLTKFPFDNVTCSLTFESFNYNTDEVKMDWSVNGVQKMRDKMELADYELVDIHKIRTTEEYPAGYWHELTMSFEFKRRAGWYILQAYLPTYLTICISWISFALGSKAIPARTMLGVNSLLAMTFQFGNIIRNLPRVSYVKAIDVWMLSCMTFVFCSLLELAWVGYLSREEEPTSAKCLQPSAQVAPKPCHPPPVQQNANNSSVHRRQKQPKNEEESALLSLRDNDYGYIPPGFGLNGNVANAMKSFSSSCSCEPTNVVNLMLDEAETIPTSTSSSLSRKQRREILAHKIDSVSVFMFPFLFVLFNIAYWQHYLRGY

[4] = biological target: T1, LGC-39; remark: listed apart in the source
[5] = biological target: T4, LGC-40 (Caenorhabditis elegans, UniProt Q22741)
T4 construct: full-length untagged cDNA in KSM vector, cRNA in Xenopus laevis oocytes; pentameric, expressed alone
T4 sequence (Q22741 23-494): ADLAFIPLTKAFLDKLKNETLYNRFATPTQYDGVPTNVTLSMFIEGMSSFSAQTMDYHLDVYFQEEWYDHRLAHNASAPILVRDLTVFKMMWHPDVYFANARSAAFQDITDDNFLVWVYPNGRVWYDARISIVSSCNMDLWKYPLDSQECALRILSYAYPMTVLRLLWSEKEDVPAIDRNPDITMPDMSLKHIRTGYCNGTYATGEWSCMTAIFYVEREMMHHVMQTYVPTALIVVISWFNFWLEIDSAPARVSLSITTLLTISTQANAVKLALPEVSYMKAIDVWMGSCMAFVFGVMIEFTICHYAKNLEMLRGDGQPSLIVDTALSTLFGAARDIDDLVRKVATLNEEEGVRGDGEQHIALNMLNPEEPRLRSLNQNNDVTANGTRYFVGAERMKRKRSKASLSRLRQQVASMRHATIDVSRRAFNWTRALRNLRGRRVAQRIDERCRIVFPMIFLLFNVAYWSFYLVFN

[6] = biological target: T5, LGC-57 (Caenorhabditis elegans, UniProt Q09453)
T5 construct: full-length untagged cDNA in KSM vector, cRNA in Xenopus laevis oocytes; pentameric, expressed alone
T5 sequence (Q09453 20-473): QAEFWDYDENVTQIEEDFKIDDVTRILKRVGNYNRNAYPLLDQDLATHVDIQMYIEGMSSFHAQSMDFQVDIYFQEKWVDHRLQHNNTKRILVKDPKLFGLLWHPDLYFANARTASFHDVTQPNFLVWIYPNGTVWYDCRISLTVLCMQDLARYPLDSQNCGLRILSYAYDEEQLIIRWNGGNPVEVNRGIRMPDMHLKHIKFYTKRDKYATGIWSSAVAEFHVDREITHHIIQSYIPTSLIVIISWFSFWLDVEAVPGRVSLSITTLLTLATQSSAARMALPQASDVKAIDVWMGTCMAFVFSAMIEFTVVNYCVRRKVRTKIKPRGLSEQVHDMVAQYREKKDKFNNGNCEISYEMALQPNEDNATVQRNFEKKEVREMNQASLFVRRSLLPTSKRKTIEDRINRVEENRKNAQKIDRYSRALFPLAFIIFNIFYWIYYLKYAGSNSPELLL

[7] = biological target: T6, LGC-58 (Caenorhabditis elegans, UniProt Q2WF65)
T6 construct: full-length untagged cDNA in KSM vector, cRNA in Xenopus laevis oocytes; pentameric, expressed alone
T6 sequence (Q2WF65 21-546): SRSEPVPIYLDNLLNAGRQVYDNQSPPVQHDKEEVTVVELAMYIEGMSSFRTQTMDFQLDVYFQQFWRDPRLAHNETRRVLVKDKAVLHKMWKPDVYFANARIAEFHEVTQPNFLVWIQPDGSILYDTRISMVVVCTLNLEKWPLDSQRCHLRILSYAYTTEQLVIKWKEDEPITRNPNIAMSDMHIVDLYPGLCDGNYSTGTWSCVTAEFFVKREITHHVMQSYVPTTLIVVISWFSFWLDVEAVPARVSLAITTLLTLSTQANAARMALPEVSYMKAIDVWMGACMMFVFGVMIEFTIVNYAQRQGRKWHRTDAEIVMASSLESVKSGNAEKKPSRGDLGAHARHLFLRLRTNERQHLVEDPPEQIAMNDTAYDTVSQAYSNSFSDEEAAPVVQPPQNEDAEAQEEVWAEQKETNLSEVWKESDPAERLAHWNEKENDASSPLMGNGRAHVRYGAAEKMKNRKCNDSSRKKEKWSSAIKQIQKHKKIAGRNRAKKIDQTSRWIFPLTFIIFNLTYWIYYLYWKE

SMILES: CC(=O)OCC[N+](C)(C)C [acetylcholine]
EC50 [2]: 19 µM | EC50 [3]: the ACh-induced dose–response curve for LGC-46 | EC50 ([4]; read-out: EC50): 1290 µM | EC50 [5]: 117 µM | EC50 [6]: 115 µM | EC50 [7]: 41 µM

SMILES: O=C1C[C@@H]2OCC=C3CN4CC[C@]56c7ccccc7N1[C@H]5[C@H]2[C@H]3C[C@H]46 [strychnine]
EC50 [4]: 7.5 µM

SMILES: NCCc1ccc(O)cc1 [tyramine]
EC50 ([4]; read-out: EC50): 686 µM

SMILES: NC[C@H](O)c1ccc(O)cc1 [octopamine]
EC50 ([4]; read-out: EC50): 921 µM

Second part, the compound after the results:

IC50 [1]: 4 µM
SMILES: COC(=O)[C@@H]1[C@H]2C[C@H]3c4[nH]c5ccccc5c4CCN3C[C@@H]2CC[C@@H]1O [yohimbine]

EC50 ([4]; read-out: EC50): 10 µM | IC50 [1]: 1 µM
SMILES: NC1=NCC2c3ccccc3Cc3ccccc3N12 (stereo not drawn) [epinastine]

EC50 [5]: 15 µM | EC50 [6]: 22 µM | EC50 [7]: 15 µM
SMILES: C[N+](C)(C)CCO [choline]
